Source: patent publication US12570647B2 (Saint Louis University, priority 2021, dated 2026)
≈ marks a conversion by molar mass, not a printed value.

Columns and labels:
S. aureus ATCC 25923 = system: S. aureus ATCC 25923; parameters: key: R: resistance; S: sensitive; I: intermediate; settings: Table 2; cited from earlier work
S. aureus AR222 = system: S. aureus AR222; parameters: key to Antibiotic susceptibility (R/S/I): R: resistance; S: sensitive; I: intermediate; settings: S. aureus AR222 (CDC strain), cited from earlier work; for Antibiotic susceptibility (R/S/I): Table 2
S. aureus AR215 = system: S. aureus AR215; parameters: key to Antibiotic susceptibility (R/S/I): R: resistance; S: sensitive; I: intermediate; settings: S. aureus AR215 (CDC strain), cited from earlier work; for Antibiotic susceptibility (R/S/I): Table 2
S. aureus AR217 = system: S. aureus AR217; parameters: key to Antibiotic susceptibility (R/S/I): R: resistance; S: sensitive; I: intermediate; settings: S. aureus AR217 (CDC strain), cited from earlier work; for Antibiotic susceptibility (R/S/I): Table 2
S. aureus ATCC25923 = assay: S. aureus MIC80 determination, broth microdilution (CLSI) in CAMHB; format: cell-based; settings: Staphylococcus aureus, ATCC25923; Table 1; S. aureus ATCC 25923; growth inhibition ≥80% vs vehicle, 16-24 h; read-out: ATCC 25923 MIC80
Description: S. Aureus MIC80 determinations in S. aureus ATCC25923 or in multidrug-resistant strains AR215, AR217 and AR255. MIC80's were determined by the broth microdilution method recommended by the Clinical and Laboratory Standards Institute (CLSI) in Cation-adjusted Mueller-Hinton broth (CAMHB). (Cao et al., 2018). In the preliminary screening, three compound concentrations were used: 5.8, 20.4, and 71.4 μM; for quantitative MIC80 measurements, a 1.5-fold dilution series of the compounds was prepared in CAMHB. Overnight bacterial culture was added to the diluted compounds in a 96-well plate after adjusting the bacterial concentration to achieve a 5×10^5 CFU/mL final concentration. After 16-24 h incubation at 35±2° C., the plates were read at 600 nm in a microplate reader. The MIC80 was defined as the concentration of an antibacterial agent that inhibited bacteria growth ≥80% compared to vehicle-treated control cultures. All values were determined at least twice independently, and the average number is reported.

Row | Compound | MIC80 (S. aureus ATCC25923) | also measured
1 | CCCCCCCCCC(=O)N[C@@H](Cc1c[nH]c2ccccc12)C(=O)N[C@H](CC(N)=O)C(=O)N[C@@H](CC(=O)O)C(=O)N[C@@H]1C(=O)NCC(=O)N[C@@H](CCCN)C(=O)N[C@@H](CC(=O)O)C(=O)N[C@H](C)C(=O)N[C@@H](CC(=O)O)C(=O)NCC(=O)N[C@H](CO)C(=O)N[C@@H]([C@H](C)CC(=O)O)C(=O)N[C@@H](CC(=O)c2ccccc2N)C(=O)O[C@@H]1C [DAP, Daptomycin] | – | Antibiotic susceptibility (R/S/I) (S. aureus ATCC 25923): S; Antibiotic susceptibility (R/S/I) (S. aureus AR222): S
2 | CC[C@H]1OC(=O)[C@H](C)[C@@H](O[C@H]2C[C@@](C)(OC)[C@@H](O)[C@H](C)O2)[C@H](C)[C@@H](O[C@@H]2O[C@H](C)C[C@H](N(C)C)[C@H]2O)[C@](C)(O)C[C@@H](C)C(=O)[C@H](C)[C@@H](O)[C@]1(C)O [ERY, Erythromycin] | – | Resistance of the strain to the antibiotic (S. aureus AR215): resistant; Antibiotic susceptibility (R/S/I) (S. aureus AR215): R; Antibiotic susceptibility (R/S/I) (S. aureus ATCC 25923): S; Antibiotic susceptibility (R/S/I) (S. aureus AR217): S; Antibiotic susceptibility (R/S/I) (S. aureus AR222): S
3 | Cc1cc(Cl)cc2sc(N3CCC(O)CC3)nc12 [Example 32, 1-(6-chloro-4-methylbenzo[d]thiazol-2-yl)piperidin-4-ol] | > 100 µM | –
4 | Cc1cc(Cl)cc2sc(N3CCC(N)CC3)nc12 [Example 33, 1-(6-chloro-4-methyl-1,3-benzothiazol-2-yl)piperidin-4-amine] | 66.7 µM (≈ 18.8 µg/mL) | –
5 | Cc1cc(Cl)cc2sc(N3CCC(CN)CC3)nc12 [Example 34] | 44.4 µM (≈ 13.1 µg/mL) | –
6 | Cc1cc(Cl)cc2sc(N3CCCC(Cn4ccnc4)C3)nc12 (centres unmarked) [Example 35, 6-chloro-2-{3-[(1H-imidazol-1-yl)methyl]piperidin-1-yl}-4-methyl-1,3-benzothiazole] | 66.7 µM (≈ 23.1 µg/mL) | –
7 | Cc1cc(Cl)cc2sc(N(CCCn3ccnc3)C(=O)CN)nc12 [Example 36, 2-amino-N-(6-chloro-4-methyl-1,3-benzothiazol-2-yl)-N-[3-(1H-imidazol-1-yl)propyl]acetamide] | > 100 µM | –
8 | Cc1cc(Cl)cc2sc(N(CC3CCNCC3)C(=O)C3CCC3)nc12 [Example 37, N-(6-chloro-4-methylbenzo[d]thiazol-2-yl)-N-(piperidin-4-ylmethyl)cyclobutanecarboxamide] | 19.8 µM (≈ 7.48 µg/mL) | –
9 | Cc1cc(Cl)cc2sc(N(CC3CCN(C)CC3)C(=O)C3CCC3)nc12 [Example 38, N-(6-chloro-4-methyl-1,3-benzothiazol-2-yl)-N-[(1-methylpiperidin-4-yl)methyl]cyclobutanecarboxamide] | > 100 µM | –
10 | Cc1cc(Cl)cc2sc(N(CC3CCNCC3)C(=O)C3CC3)nc12 [Example 39] | 19.8 µM (≈ 7.21 µg/mL) | –
11 | Cc1cc(Cl)cc2sc(N(CC3CCNC3)C(=O)C3CCC3)nc12 (centres unmarked) [Example 40, N-(6-chloro-4-methyl-1,3-benzothiazol-2-yl)-N-[(pyrrolidin-3-yl)methyl]cyclobutanecarboxamide] | 29.6 µM (≈ 10.8 µg/mL) | –
12 | Cc1cc(Cl)cc2sc(N(CC3CCNC3)C(=O)C3CC3)nc12 (centres unmarked) [Example 41, N-(6-chloro-4-methylbenzo[d]thiazol-2-yl)-N-(pyrrolidin-3-ylmethyl)cyclopropanecarboxamide] | 44.4 µM (≈ 15.5 µg/mL) | –
13 | Cc1cc(Cl)cc2sc(N(CC3CCCNC3)C(=O)C3CC3)nc12 (centres unmarked) [Example 42, N-(6-chloro-4-methyl-1,3-benzothiazol-2-yl)-N-[(piperidin-3-yl)methyl]cyclopropanecarboxamide] | 66.7 µM (≈ 24.3 µg/mL) | –
14 | Cc1cc(Cl)cc2sc(N(CCC3CCNCC3)C(=O)C3CC3)nc12 [Example 43, N-(6-chloro-4-methyl-1,3-benzothiazol-2-yl)-N-[2-(piperidin-4-yl)ethyl]cyclopropanecarboxamide] | 100 µM (≈ 37.8 µg/mL) | –
15 | Cc1cc(Cl)cc2sc(N(CCCn3cccc3)C(=O)c3ccco3)nc12 [Example 44, N-(6-chloro-4-methyl-1,3-benzothiazol-2-yl)-N-[3-(1H-pyrrol-1-yl)propyl]furan-2-carboxamide] | > 100 µM | –
16 | Cc1cc(Cl)cc2sc(N(C[C@H]3CC[C@H](N)CC3)C(=O)C3CC3)nc12 [Example 45, N-(6-chloro-4-methyl-1,3-benzothiazol-2-yl)-N-{[(1r,4r)-4-aminocyclohexyl]methyl}cyclopropanecarboxamide] | 19.8 µM (≈ 7.48 µg/mL) | –
17 | NCc1cccc2sc(N(CCCn3ccnc3)C(=O)c3ccco3)nc12 [Example 46, N-[4-(aminomethyl)-1,3-benzothiazol-2-yl]-N-[3-(1H-imidazol-1-yl)propyl]furan-2-carboxamide] | > 100 µM | –
18 | NCc1cccc2sc(N(CCCn3ccnc3)C(=O)C3CCC3)nc12 [Example 47, N-[4-(aminomethyl)-1,3-benzothiazol-2-yl]-N-[3-(1H-imidazol-1-yl)propyl]cyclobutanecarboxamide] | > 100 µM | –
19 | NCc1cccc2sc(N(CCCn3ccnc3)C(=O)C3CC3)nc12 [Example 48, N-[4-(aminomethyl)-1,3-benzothiazol-2-yl]-N-[3-(1H-imidazol-1-yl)propyl]cyclopropanecarboxamide] | > 100 µM | –

Row | Compound | MIC80 (S. aureus ATCC25923) | also measured
20 | NCc1ccc2nc(N(CCCn3ccnc3)C(=O)c3ccco3)sc2c1 [Example 49, N-[6-(aminomethyl)-1,3-benzothiazol-2-yl]-N-[3-(1H-imidazol-1-yl)propyl]furan-2-carboxamide] | > 100 µM | –
21 | NCc1ccc2nc(N(CCCn3ccnc3)C(=O)C3CCC3)sc2c1 [Example 50, N-[6-(aminomethyl)-1,3-benzothiazol-2-yl]-N-[3-(1H-imidazol-1-yl)propyl]cyclobutanecarboxamide] | > 100 µM | –
22 | NCc1ccc2nc(N(CCCn3ccnc3)C(=O)C3CC3)sc2c1 [Example 51] | > 100 µM | –
23 | O=C(c1ccco1)N(CCCn1ccnc1)c1nc2ccc(Cl)nc2s1 [Example 52, N-{5-chloro-[1,3]thiazolo[5,4-b]pyridin-2-yl}-N-[3-(1H-imidazol-1-yl)propyl]furan-2-carboxamide] | > 100 µM | –
24 | O=C(C1CC1)N(CCCn1ccnc1)c1nc2ccc(Cl)nc2s1 [Example 53, N-{5-chloro-[1,3]thiazolo[5,4-b]pyridin-2-yl}-N-[3-(1H-imidazol-1-yl)propyl]cyclopropanecarboxamide] | > 100 µM | –
25 | Cc1nc(Cl)cc2sc(N(CCCn3ccnc3)C(=O)c3ccco3)nc12 [Example 54, N-{6-chloro-4-methyl-[1,3]thiazolo[4,5-c]pyridin-2-yl}-N-[3-(1H-imidazol-1-yl)propyl]furan-2-carboxamide] | > 100 µM | –
26 | Cc1nc(Cl)cc2sc(N(CCCn3ccnc3)C(=O)C3CC3)nc12 [Example 55, N-{6-chloro-4-methyl-[1,3]thiazolo[4,5-c]pyridin-2-yl}-N-[3-(1H-imidazol-1-yl)propyl]cyclopropanecarboxamide] | 100 µM (≈ 37.6 µg/mL) | –
27 | Cc1cc(Cl)cc2sc(N(CC3CCN(C(=O)OC(C)(C)C)CC3)C(=O)C3CCC3)nc12 [Example 56] | > 100 µM | –
28 | Cc1cc(Cl)cc2sc(N3CCC(CNC(=O)OC(C)(C)C)CC3)nc12 [Example 57] | > 100 µM | –
29 | Cc1cc(Cl)cc2sc(N3CCC(NC(=O)OC(C)(C)C)CC3)nc12 [Example 58] | > 100 µM | –
30 | Cc1cc(Cl)cc2sc(N3CCN(C(=O)OC(C)(C)C)CC3)nc12 [Example 59] | > 100 µM | –
31 | Cc1cc(Cl)cc2sc(N(CCCn3ccnc3)C(=O)C(C)N)nc12 (centres unmarked) [Example 60] | > 100 µM | –
32 | Cc1cc(Cl)cc2sc(NC(=O)C3CC3)nc12 [Example 61] | > 100 µM | –
33 | Cc1cc(Cl)cc2sc(NC(=O)c3ccco3)nc12 [Example 62] | > 100 µM | –
34 | CO[C@@]1(NC(=O)Cc2cccs2)C(=O)N2C(C(=O)O)=C(COC(N)=O)CS[C@@H]21 [FOX, Cefoxitin] | – | Resistance of the strain to the antibiotic (S. aureus AR215): resistant; Antibiotic susceptibility (R/S/I) (S. aureus AR215): R; Resistance of the strain to the antibiotic (S. aureus AR217): resistant; Antibiotic susceptibility (R/S/I) (S. aureus AR217): R; Antibiotic susceptibility (R/S/I) (S. aureus AR222): S
35 | CC(=O)NC[C@H]1CN(c2ccc(N3CCOCC3)c(F)c2)C(=O)O1 [LZD, Linezolid] | – | Antibiotic susceptibility (R/S/I) (S. aureus AR215): S; Antibiotic susceptibility (R/S/I) (S. aureus ATCC 25923): S; Antibiotic susceptibility (R/S/I) (S. aureus AR217): S; Antibiotic susceptibility (R/S/I) (S. aureus AR222): S
36 | Cc1onc(-c2ccccc2)c1C(=O)N[C@@H]1C(=O)N2[C@@H]1SC(C)(C)[C@@H]2C(=O)O [OXA, Oxacillin] | – | Resistance of the strain to the antibiotic (S. aureus AR215): resistant; Antibiotic susceptibility (R/S/I) (S. aureus AR215): R; Antibiotic susceptibility (R/S/I) (S. aureus ATCC 25923): S; Resistance of the strain to the antibiotic (S. aureus AR217): resistant; Antibiotic susceptibility (R/S/I) (S. aureus AR217): R; Antibiotic susceptibility (R/S/I) (S. aureus AR222): S
37 | Penicillin | – | Resistance of the strain to the antibiotic (S. aureus AR215): resistant; Antibiotic susceptibility (R/S/I) (S. aureus AR215): R; Resistance of the strain to the antibiotic (S. aureus AR217): resistant; Antibiotic susceptibility (R/S/I) (S. aureus AR217): R; Resistance of the strain to the antibiotic (S. aureus AR222): resistant; Antibiotic susceptibility (R/S/I) (S. aureus AR222): R
